Experimental data published in PubChem BioAssay AID1963447 (Molecular Pharmacology Branch, DTP, NCI, 2024).
Values joined by “and” are separate entries in the source; they are usually repeats but may differ in a detail not shown here. Equal values may be shown once.

System: 885512-296-R-J2-PDC complex spheroid growth, % test/control
Experiment: Anticancer human tumor 885512-296-R-J2-PDC patient-derived breast carcinoma cell line growth inhibition [Asc]
Settings: for viability, T/C: stronger effect = lower value
Experimental: Multicellular complex tumor spheroid response to apoptosis pathway targeting inhibitors Alrizomadlin, Pelcitoclax, and Dasminapant in combination with a variety of drugs and investigational agents in selected tumor cell lines
The MDM2 inhibitor alrizomadlin, the Bcl-2/Bcl-xL inhibitor pelcitoclax, and the IAPs inhibitor dasminapant were evaluated both individually and in combination with standard of care and investigational anticancer small molecules within a complex spheroid model of solid tumors. . Complex spheroids include a stromal component modeled by human endothelial cells (HUVEC) and fibroblasts modeled by human mesenchymal stem cells (MSCs). The concentration ranges selected for each drug and investigational agent were based upon clinically achievable concentrations if the clinical Cmax of the agent was known.
Compounds. The drugs and investigational agents: alrizomadlin (APG-115; NSC831270), pelcitoclax (APG-1252; NSC835773), dasminapant (APG-1387;NSC834197), TAK-243 (NSC785004), copanlisib (NSC809693), olaparib (NSC753686), talazoparib (NSC767125), cobimetinib (NSC 768068), eltanexor (KPT-8602, NSC 794443), abemaciclib (NSC 768073), sotorasib (NSC818433), adagrasib (NSC 831453), MRTX-1133 (NSC 836407), Iadademestat (ORY1001, NSC 806812), and RMC-4630 (NSC839698), were obtained from the NCI Developmental Therapeutics Program Chemical Repository. The FDA-approved anticancer drug set is available from the Developmental Therapeutics Program at https://dtp.cancer.gov/organization/dscb/obtaining/available plates.htm. […] The stock solutions were prepared in dimethyl sulfoxide (DMSO, Sigma-Aldrich, St. Louis, MO, cat. D2650) at 800-fold the tested concentration and stored at -70 degrees C prior to their use. All drugs and investigational agents were tested over a range starting from a high concentration at or near the clinical Cmax and decreasing in half-log increments. If the clinical Cmax for an agent had not been determined, the highest concentration tested was 10 microM.
The patient-derived cancer (PDC) cell lines include five colon adenocarcinomas: 186277-243-T-J2-PDC, 616215-338-R-J1-PDC, 439559-082-T-J2-PDC, 463943-066-T-J2-PDC, and 519858-162-T-J1-PDC; three pancreatic carcinomas: 323965-272-R-J2-PDC, 521955-158-R6-J3-PDC, and 521955-158-R2-J5-PDC; two uterine sarcomas: 327498-152-R-J2-PDC and 993429-296-R-J1-PDC; two rhabdomyosarcomas: 755483-174-R-J1-PDC and 772245-204-R-J1-PDC; two soft tissue sarcomas: 126254-015-R-J1-PDC and 494315-158-R-J1-PDC; two malignant fibrous histiocytomas: 317291-083-R-J1-PDC and 596521-263-R-J1-PDC; two breast carcinomas: 171881-019-R-J1-PDC and 885512-296-R-J2-PDC; and one ovarian carcinoma: 6556581-035-R-J-PDC were obtained from the NCI PDMR, (https://pdmr.cancer.gov). The established cell lines HSSY-2 synovial sarcoma (RRID:CVCL 8719), SYO-1 synovial sarcoma (RRID:CVCL_7146), MPNST malignant peripheral neural sheath tumor were obtained from the Sloan Kettering Institute. The following established cell lines were purchased from the American Type Culture Collection (ATCC, Manassas, VA), Sor the received from the NCI repository:, PANC-1 pancreatic carcinoma (CRL-1469, RRID:CVCL_0480), OVCAR-5 ovarian carcinoma (RRID:CVCL_1628), OVCAR-8 ovarian carcinoma (RRID:CVCL_1629), , MCF-7 breast carcinoma (CRL-12584, RRID:CVCL_0031), MDA-MB-231 breast carcinoma (CRL-12532, RRID:CVCL_0062), NCI-H1876 small cell lung carcinoma (CRL-5902, RRID:CVCL_1503), NCI-H510A small cell lung carcinoma (HTB-184, RRID:CVCL_1565), NCI-H1417 (CRL-5869, RRID:CVCL_1469), and NCI-H196 small cell lung carcinoma (CRL-5823, RRID:CVCL_1509). Dr. Peter Houghton (Greehey Children's Cancer Research Institute, University of Texas Health Science Center, San Antonio, TX) provided Rh-18 rhabdomyosarcoma (RRID:CVCL_1659). Pooled donor human umbilical vein endothelial cells (HUVEC, Lonza, cat. CC-2519) and human mesenchymal stem cells (hMSC, Lonza, cat. PT-2501) were purchased from Lonza (Walkersville, MD).
Cell Culture. […]

[1] = curve of first compound, second compound 0.01 µM
[2] = curve of first compound, second compound 0.0316 µM
[3] = curve of first compound, second compound 0.1 µM
[4] = curve of first compound, second compound 0.316 µM
[5] = curve of first compound, second compound 1 µM
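Further: spheroids exposed to compounds for seven days.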
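Wherever viability, T/C is given: 100% = DMSO vehicle control wells.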

Work on `CCN1C(C(=O)NC23CCC(C(=O)O)(CC2)CC3)C(c2cccc(Cl)c2F)C2(C(=O)Nc3cc(Cl)ccc32)C12CCCCC2` (configuration not stated) + CNC(C)C(=O)NC1CN(S(=O)(=O)c2cccc(S(=O)(=O)N3CCC4CCC(C(=O)NC(c5ccccc5)c5ccccc5)N4C(=O)C(NC(=O)C(C)NC)C3)c2)CCC2CCC(C(=O)NC(c3ccccc3)c3ccccc3)N2C1=O yielded an IC50 [1] greater than 3000 nM, an IC50 [2] of 2970 nM and an IC50 [3] greater than 3000 nM. It also gave an IC50 [4] greater than 3000 nM, an IC50 [5] greater than 3000 nM and a viability, T/C (second compound 0.01 µM, first compound 0.00949 µM) of 85.2%. The viability, T/C (second compound 0.01 µM, first compound 0.03 µM) was 77.7%, the viability, T/C (second compound 0.01 µM, first compound 0.0949 µM) was 87% and the viability, T/C (second compound 0.01 µM, first compound 0.3 µM) was 84%. For the same compound, the viability, T/C (second compound 0.01 µM, first compound 0.949 µM) was 67%, the viability, T/C (second compound 0.01 µM, first compound 3 µM) was 53.5% and the viability, T/C (second compound 0.0316 µM, first compound 0.00949 µM) was 103%. It also gave a viability, T/C (second compound 0.0316 µM, first compound 0.03 µM) of 98.3%, a viability, T/C (second compound 0.0316 µM, first compound 0.0949 µM) of 88.7% and a viability, T/C (second compound 0.0316 µM, first compound 0.3 µM) of 97.2%. It also gave a viability, T/C (second compound 0.0316 µM, first compound 0.949 µM) of 84.7%, a viability, T/C (second compound 0.0316 µM, first compound 3 µM) of 49.4% and a viability, T/C (second compound 0.1 µM, first compound 0.00949 µM) of 98.7%. The viability, T/C (second compound 0.1 µM, first compound 0.03 µM) was 107%, the viability, T/C (second compound 0.1 µM, first compound 0.0949 µM) was 108% and the viability, T/C (second compound 0.1 µM, first compound 0.3 µM) was 104%. It also gave a viability, T/C (second compound 0.1 µM, first compound 0.949 µM) of 77.2%, a viability, T/C (second compound 0.1 µM, first compound 3 µM) of 51.7% and a viability, T/C (second compound 0.316 µM, first compound 0.00949 µM) of 104%. The viability, T/C (second compound 0.316 µM, first compound 0.03 µM) was 103%, the viability, T/C (second compound 0.316 µM, first compound 0.0949 µM) was 111% and the viability, T/C (second compound 0.316 µM, first compound 0.3 µM) was 97.9%. The viability, T/C (second compound 0.316 µM, first compound 0.949 µM) was 86%, the viability, T/C (second compound 0.316 µM, first compound 3 µM) was 57.8% and the viability, T/C (second compound 1 µM, first compound 0.00949 µM) was 104%. For the same compound, the viability, T/C (second compound 1 µM, first compound 0.03 µM) was 118%, the viability, T/C (second compound 1 µM, first compound 0.0949 µM) was 111% and the viability, T/C (second compound 1 µM, first compound 0.3 µM) was 101%. For the same compound, the viability, T/C (second compound 1 µM, first compound 0.949 µM) was 90% and the viability, T/C (second compound 1 µM, first compound 3 µM) was 60.3%.

In the case of `NC1CCC(NC2CC2c2ccccc2)CC1` (configuration not stated) + CNC(C)C(=O)NC1CN(S(=O)(=O)c2cccc(S(=O)(=O)N3CCC4CCC(C(=O)NC(c5ccccc5)c5ccccc5)N4C(=O)C(NC(=O)C(C)NC)C3)c2)CCC2CCC(C(=O)NC(c3ccccc3)c3ccccc3)N2C1=O, the IC50 [1] is reported as greater than 100 nM, the IC50 [2] is reported as greater than 100 nM and the IC50 [3] is reported as greater than 100 nM. It also gave an IC50 [4] greater than 100 nM, an IC50 [5] greater than 100 nM and a viability, T/C (second compound 0.01 µM, first compound 0.000316 µM) of 114%. For the same compound, the viability, T/C (second compound 0.01 µM, first compound 0.001 µM) was 116%, the viability, T/C (second compound 0.01 µM, first compound 0.00316 µM) was 111% and the viability, T/C (second compound 0.01 µM, first compound 0.01 µM) was 105%. It also gave a viability, T/C (second compound 0.01 µM, first compound 0.0316 µM) of 111%, a viability, T/C (second compound 0.01 µM, first compound 0.1 µM) of 113% and a viability, T/C (second compound 0.0316 µM, first compound 0.000316 µM) of 107%. It also gave a viability, T/C (second compound 0.0316 µM, first compound 0.001 µM) of 112%, a viability, T/C (second compound 0.0316 µM, first compound 0.00316 µM) of 107% and a viability, T/C (second compound 0.0316 µM, first compound 0.01 µM) of 113%. For the same compound, the viability, T/C (second compound 0.0316 µM, first compound 0.0316 µM) was 110%, the viability, T/C (second compound 0.0316 µM, first compound 0.1 µM) was 110% and the viability, T/C (second compound 0.1 µM, first compound 0.000316 µM) was 107%. For the same compound, the viability, T/C (second compound 0.1 µM, first compound 0.001 µM) was 91%, the viability, T/C (second compound 0.1 µM, first compound 0.00316 µM) was 109% and the viability, T/C (second compound 0.1 µM, first compound 0.01 µM) was 106%. For the same compound, the viability, T/C (second compound 0.1 µM, first compound 0.0316 µM) was 104%, the viability, T/C (second compound 0.1 µM, first compound 0.1 µM) was 111% and the viability, T/C (second compound 0.316 µM, first compound 0.000316 µM) was 108%. It also gave a viability, T/C (second compound 0.316 µM, first compound 0.001 µM) of 110%, a viability, T/C (second compound 0.316 µM, first compound 0.00316 µM) of 112% and a viability, T/C (second compound 0.316 µM, first compound 0.01 µM) of 105%. It also gave a viability, T/C (second compound 0.316 µM, first compound 0.0316 µM) of 108%, a viability, T/C (second compound 0.316 µM, first compound 0.1 µM) of 110% and a viability, T/C (second compound 1 µM, first compound 0.000316 µM) of 111%. The viability, T/C (second compound 1 µM, first compound 0.001 µM) was 104%, the viability, T/C (second compound 1 µM, first compound 0.00316 µM) was 110% and the viability, T/C (second compound 1 µM, first compound 0.01 µM) was 98.6%. It also gave a viability, T/C (second compound 1 µM, first compound 0.0316 µM) of 105% and a viability, T/C (second compound 1 µM, first compound 0.1 µM) of 109%.

For `C=C(F)C(=O)N1CCN(c2nc(OCC3CCCN3C)nc3c2CCN(c2cccc4cccc(Cl)c24)C3)CC1CC#N` (configuration not stated), the viability, T/C (compound 0.0316 µM) was 81.9% and 107% and 97.2%, the viability, T/C (compound 0.1 µM) was 97% and 114% and 90.5% and the viability, T/C (compound 0.316 µM) was 104% and 102% and 94.4%. For the same compound, the viability, T/C (compound 1 µM) was 97.8% and 113% and 110%, the viability, T/C (compound 3.16 µM) was 22% and 31.8% and 50.9% and the viability, T/C (compound 10 µM) was 0.17% and 0.15% and 0.14%. The IC50 (curve of compound) was 2040 nM and 2410 nM and 3230 nM.
